Experimental data taken from US10761088B2, “Method for identifying histone tail proteolysis” (University of Southern California, priority 2016, dated 2020).
Entries after “also recorded” stand apart in the source; their conditions may differ.

Columns and labels:
[1] = molecular target: T1, H3NT protease activity (MMP-9) of purified fractions #3-5 from 3-day OCP-induced cells (Mus musculus, UniProt P41245); assay: In vitro H3NT cleavage assay of purified nuclear fractions #3-5 with protease inhibitors (rH3 substrate, Western blot with H3CT antibody); format: biochemical; settings: fractions incubated with protease inhibitors, Western blot with H3CT antibody (FIG. 1D, 1E)
T1 construct: both the pro- and active-forms of MMP-9 were detected in the nuclear compartment of 1-day OCP-induced cells; endogenous in cells; host or cells: primary mouse (C57BL/6) bone-marrow-derived OCP cells induced with RANKL; nuclear extracts / lysates
T1 sequence (P41245 108-730): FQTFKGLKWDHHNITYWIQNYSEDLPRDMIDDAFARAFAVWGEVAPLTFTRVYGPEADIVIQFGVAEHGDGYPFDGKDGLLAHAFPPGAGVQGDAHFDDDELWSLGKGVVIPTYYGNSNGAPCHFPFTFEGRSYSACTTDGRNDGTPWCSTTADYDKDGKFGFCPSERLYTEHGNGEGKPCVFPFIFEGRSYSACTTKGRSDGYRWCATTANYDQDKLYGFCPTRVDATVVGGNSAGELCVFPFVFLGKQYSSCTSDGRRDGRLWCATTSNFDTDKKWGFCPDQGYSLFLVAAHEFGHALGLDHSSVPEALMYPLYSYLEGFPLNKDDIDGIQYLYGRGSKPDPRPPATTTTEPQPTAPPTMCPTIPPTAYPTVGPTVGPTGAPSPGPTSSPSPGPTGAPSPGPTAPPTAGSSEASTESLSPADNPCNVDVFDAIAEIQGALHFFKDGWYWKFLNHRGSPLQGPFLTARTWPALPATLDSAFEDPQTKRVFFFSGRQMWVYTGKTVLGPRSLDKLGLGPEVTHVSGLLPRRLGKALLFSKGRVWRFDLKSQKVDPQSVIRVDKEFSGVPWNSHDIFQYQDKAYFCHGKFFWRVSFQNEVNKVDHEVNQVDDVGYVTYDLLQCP
From the text: (§1) To identify the protease responsible for H3NT cleavage observed in preosteoclasts, nuclear extracts from 3-day OCP-induced cells were fractionated by a series of chromatography steps (FIG. 1C). An in vitro H3NT cleavage assay was developed using a recombinant H3 (rH3) substrate and Western blot analysis with the H3CT antibody to track and isolate nuclear fractions containing H3NT protease activity. […] These fractions were combined and fractionated on a Q-sepharose column where, again, H3NT protease activity was largely restricted to two sequential fractions, BR100 and BR200. The fractions were combined for glycerol gradient sedimentation resulting in the final purification of fractions (#3-5) containing H3NT protease activity. […]
(§2) His-tagged proteins were generated in Rosetta 2 (DE3) pLysS E. coli (Novagen) and purified as previously described (Kim et al. 2008). […] Peptides were incubated with rMMP-9 at seven different concentrations (0, 25, 50, 100, 150, 200, and 250 µM) in cleavage buffer, the reactions stopped by adding 20 mM o-phenanthroline (Sigma) and peptide hydrolysis was measured by adding 5 mM fluorescamine followed by detection at λex 365 nm and λem 450 nm using a Plate Chameleon spectrofluorometer (Hidex). Kinetic parameters were determined by Michaelis-Menten analysis. […]

[2] = system: H3NT proteolysis in OCP-induced cells; assay: H3NT cleavage in OCP-induced cells (Western blot of chromatin with H3CT antibody); format: cell-based; settings: RANKL-induced primary mouse OCP cells; shRNA transduction or 10 nM MMP-9-INI or 1.6 μM C646 for 3 days prior to differentiation; versus control shRNA or DMSO
[3] = system: Nfatc1, Lif and Xpr1 expression; assay: RT-qPCR of osteoclastogenic genes Nfatc1, Lif and Xpr1 in 3-day OCP cells; format: cell-based, mouse; settings: 3-day OCP-induced cells, with RANKL (FIG. 7B, 14)
From the text: FIGS. 7A-7D. […] Distribution of H3NT-cleaved genes dependent on MMP-9 for activation (light) or repression (black) in 3-day OCP-induced cells (right). […] Enrichments were plotted relative to non-induced control shRNA OCP cells (first column) (y-axis). Star indicates H3NT cleavage.
FIG. 14. […] RT-qPCR was used to quantitatively measure fold expression changes (y-axis) of the osteoclastogenic genes Nfatc1, Lif and Xpr1 relative to non-induced control after normalization to β-actin expression.
To broadly examine the association between H3NT cleavage and gene expression, the RNA-Seq data was analyzed for the 1,233 H3NT-cleaved genes identified in control and MMP-9 depleted 3-day OCP-induced cells. […] To further investigate the MMP-9-dependent activation of these genes during osteoclastogenesis, RT-qPCR was performed in OCP cells transduced with a control or MMP-9-specific shRNA, or treated with DMSO control or a selective MMP-9 inhibitor, and cultured with or without RANKL for 3 days. […]
qPCR was performed using PerfeCta® SYBR Green FastMix (Quanta BIOSCIENCES) and an iCycler IQ5 (Bio-Rad). […] Specificity of amplification was determined by melting curve analysis and all samples were run in triplicate with results averaged.

recombinant H3 (rH3) = assay: In vitro H3NT cleavage assay using recombinant proteases; format: biochemical; settings: recombinant MMP-9, USP14, USP39 and DIM1 tested (FIG. 1G)
From the text: as §1, §2

H3NT protease activity of purified fractions #3-5 [1] | Molecule | H3NT proteolysis / cleavage in OCP-induced cells [2] | Nfatc1, Lif and Xpr1 activation (fold expression, normalized to β-actin) [3] | H3NT protease activity of recombinant proteases (recombinant H3 (rH3))
abolished H3NT proteolysis | CCN(CC)Cc1cc(C)c(N(Cc2ccccc2)S(=O)(=O)c2ccc(OC)cc2)c(C(=O)NO)c1 [selective MMP-9 inhibitor] | continuous impairment of H3NT cleavage; also recorded: Ablation of H3NT cleavage | significantly impaired Nfatc1, Lif and Xpr1 activation | 
 | CC1=NN(c2ccc(C(=O)O)cc2)C(=O)/C1=C\c1ccc(-c2cc(C)c(C)cc2[N+](=O)[O-])o1 [selective CBP/p300 inhibitor, C646] | sustained impairment of H3NT proteolysis |  | 
 | rMMP-9: His-tagged recombinant MMP-9 (aa1115-730 as printed) purified from E. coli inclusion bodies and refolded |  |  | possessed H3NT protease activity
